Experimental data reported in publication PMC5700161, “Structure of human immunoproteasome with a reversible and noncompetitive inhibitor that selectively inhibits activated lymphocytes” (Nature Communications, 2017).

Legend:
[1] = system: CD19+CD38+CD27+ ASCs; assay: Survival and apoptosis of differentiated antibody-secreting cells (ASCs) from PBMC, Annexin V/7-AAD; format: cell-based, human; details: added for 12 hours on Day 5
Description: (§1) The immunoproteasome plays important roles in T cell differentiation and proliferation and dendritic cell activation and maturation[14],[20],[24]. However, its role in B cell differentiation is not well understood. […] Differentiated ASCs were then exposed to PKS21221 at indicated concentrations and cell survival was determined with Annexin V and 7-aminoactinomycin D (7-AAD) at three-time points (12-h, 24-h, and 48-h after treatment). […] In addition, the cytotoxicity of PKS21221 to different cell populations in PBMC was examined and compared to the cytotoxicity of bortezomib. PBMCs were incubated with PKS21221 or bortezomib, and the viability was assessed in T cells (CD3^+), B cells (CD19^+), monocytes (CD14^+) and dendritic cells (CD3^−CD19^−CD14^−CD16^−CD11c^+HLA-DR^+), respectively (Supplementary Fig. 13b–e).
PBMCs were cultured with or without IL-2/R848 for 5 days, followed by 12-h incubation with PKS21221 at different concentrations. a Representative flow cytometry plots of cells treated with IL-2 and R848 in the presence and absence of PKS21221. […] Annexin V^+7-AAD^− cells were referred as “Early apoptosis” population, and Annexin V^+7-AAD^+ cells were referred as “Dead” population. d Percentage of early apoptotic ASCs (left) and dead ASCs (right), after 12-h incubation with PKS21221.
Human peripheral blood samples were obtained from five different healthy volunteers (BWH Specimen Bank). Peripheral blood mononuclear cells (PBMCs) were isolated by density gradient centrifugation using Lymphoprep (StemCell Technologies). PBMCs were cultured at 1.5 × 10^6 cells per mL in RPMI 1640 media (Lonza), supplemented with 10% human serum (GemCell) (10% HS-RPMI), recombinant human IL-2 10 ng per mL (or 100 U per ml, BioLegend) and R848 1 µg per mL (Cayman Chemicals) for 5 days, at 37 °C, 5% CO2. PKS21221 in DMSO, or DMSO only for control, was added to the culture media on day 5, and cells were incubated for additional 12, 24, and 48 h.

[2] = system: resting CD3+ T cells and CD19+ B cells; assay: Viability assay of human PBMC populations (Fixable Viability dye); format: cell-based; details: 10 nM bortezomib vs 1 μM PKS21221
Description: as §1
(1 picture or pasted object on this page, not shown here)

[3] = system: T cells; assay: In vitro T-cell proliferation, anti-CD3/anti-CD28; format: cell-based, human; details: anti-CD3 and anti-CD28 stimulation
Text: (§2) As we observed selective cytotoxicity of PKS21221 in activated B cells and ASCs compared to non-activated B cells, we asked whether this is the case in proliferating T cells. We activated human T cells to proliferate with anti-CD3 and anti-CD28 in the presence or absence of PKS21221 or bortezomib. […] To examine whether these inhibitors are cytotoxic preferentially to proliferating cells, we triggered T-cell proliferation with anti-CD3/anti-CD28 for 4 days (in the absence of inhibitors), treated the cells with PKS21221 for the next 24 h and determined cell survival with Annexin V and 7-AAD (Fig. 6c, d).
(§3) Fig. 6 Effect of PKS21221 and bortezomib (BTZ) on T-cell proliferation. T cells were isolated from human PBMC and stimulated with anti-CD3 (1 µg per ml) and anti-CD28 (1 µg per ml) for 4 days. […] Apoptosis c and viability d were assessed in proliferating and non-proliferating population of T cells. […]
(§4) T cells were isolated from human PBMCs using Human T-cell Isolation kit (StemCell Technologies, Cat#17951). […] Cells were counted and loaded with 5 μM CellTrace Violet (Thermo Fisher) in phosphate buffered saline (PBS) for 10 min at 37 °C, followed by wash in 10% fetal calf serum (FCS)-supplemented RPMI 1640 media. […] The viability and apoptosis were assessed using Annexin V Apoptosis Detection Kit (BD Biosciences). […]

[4] = system: proliferating T cells; assay: Apoptosis and viability of proliferating vs non-proliferating T cells; format: cell-based, human; details: 4 days anti-CD3/anti-CD28, then 24 h; PKS21221 1 µM, BTZ 10 nM
Text: as §2, §3, §4

Structure (SMILES): CC(C)C[C@H](NC(=O)[C@H](Cc1ccccc1)NC(=O)c1cnccn1)B(O)O [Bortezomib, bortezomib, reference compound]
- ASC percentage in ASC differentiating culture [1]: decreased the percentage of
- cytotoxicity to resting CD3+ T cells and CD19+ B cells [2]: more cytotoxic at 10 nM than PKS2122 at 1 µM
- proliferation of T cells [3]: inhibited proliferation of T cells in a dose-dependent manner
- apoptosis and cell death, proliferating vs non-proliferating T cells [4]: induced apoptosis and cell death to a greater extent in proliferating T cells than in non-proliferating T cells
